# Test results from patent US9487489B2, “Halogen-substituted pyrazole derivatives as pest-control agents” (BAYER CROPSCIENCE AKTIENGESELLSCHAFT, priority 2013, dated 2016).
# Tests used:
# [1] = test system: adult dog ticks (Rhipicephalus sanguineus); assay: Rhipicephalus sanguineus in vitro contact test with adult brown dog ticks (T2); details: after 48 h
# Description: T2. Rhipicephalus sanguineus-in vitro Contact Tests with Adult Brown Dog Ticks
# (§1) For the coating of the test tubes, initially 9 mg of active compound are dissolved in 1 ml of acetone p.a. and then diluted with acetone p.a. to the desired concentration. By turning and rocking on an orbital shaker (2 h of rocking rotation at 30 rpm), 250 μl of the solution are distributed homogeneously on the internal walls and the floor of a 25 ml test tube. At 900 ppm active compound solution and 44.7 cm^2 internal surface, an area dose of 5 μg/cm^2 is achieved for homogeneous distribution.
# After evaporation of the solvent, the tubes are populated with 5-10 adult dog ticks (Rhipicephalus sanguineus), sealed with a perforated plastic lid and incubated in a horizontal position in the dark at room temperature and ambient humidity. After 48 h, the efficacy is determined. To this end, the ticks are knocked to the floor of the tube and incubated on a hotplate at 45-50° C. for at most 5 min Ticks which remain motionless on the floor or move in an uncoordinated manner such that they are not able to deliberately avoid the heat by climbing upwards are considered to be dead or moribund.
# An efficacy of 100% means that all ticks were dead or moribund. 0% efficacy means that none of the ticks had been damaged.
# [2] = test system: caterpillars of the armyworm (Spodoptera frugiperda); assay: Spodoptera frugiperda spray test (SPODFR); assay type: in vivo; details: maize leaf discs, after 7 days
# Description: I. Spodoptera frugiperda-spray Test (SPODFR)
# (§2) Solvent: 78.0 parts by weight of acetone
# (§3) • 1.5 parts by weight of dimethylformamide Emulsifier: alkylaryl polyglycol ether
# (§4) To produce a suitable preparation of active compound, 1 part by weight of active compound is dissolved using the stated parts by weight of solvent and made up with water comprising an emulsifier concentration of 1000 ppm until the desired concentration is reached. To produce further test concentrations, the preparation is diluted with emulsifier-containing water.
# Leaf discs of maize (Zea mays) are sprayed with an active compound preparation of the desired concentration and, after drying, populated with caterpillars of the armyworm (Spodoptera frugiperda).
# After 7 days, the efficacy in % is determined. 100% means that all of the caterpillars have been killed; 0% means that none of the caterpillars have been killed.
# [3] = test system: L1 larvae of the Australian sheep blowfly (Lucilia cuprina); assay: Lucilia cuprina test (LUCICU); assay type: in vivo; details: application rate 100 ppm; after 2 days
# Description: E. Lucilia cuprina Test (LUCICU)
# (§5) Solvent: dimethyl sulphoxide
# To produce a suitable preparation of active compound, 10 mg of active compound are mixed with 0.5 ml of dimethyl sulphoxide, and the concentrate is diluted with water to the desired concentration.
# About 20 L1 larvae of the Australian sheep blowfly (Lucilia cuprina) are transferred into a test vessel containing minced horsemeat and the active compound preparation of the desired concentration.
# After 2 days, the kill in % is determined 100% means that all of the larvae have been killed; 0% means that none of the larvae have been killed.
# [4] = logP determination by HPLC on a reversed-phase column (C18), EEC Directive 79/831 Annex V.A8; assay type: physicochemical
# Description: (§6) ^a) Note regarding the determination of the logP values and mass detection: The determination of the given logP values was carried out in accordance with EEC Directive 79/831 Annex V.A8 by HPLC (High Performance Liquid Chromatography) on a reversed-phase column (C18). Agilent 1100 LC system; 50*4.6 Zorbax Eclipse Plus C18 1.8 micron; mobile phase A: acetonitrile (0.1% formic acid); mobile phase B: water (0.09% formic acid); linear gradient from 10% acetonitrile to 95% acetonitrile in 4.25 min, then 95% acetonitrile for a further 1.25 min; oven temperature 55° C.; flow rate: 2.0 ml/min. Mass detection is carried out via an Agilend MSD system.
# as §6, with “^*)” for “^a)”
# [5] = test system: larvae of the mustard beetle (Phaedon cochleariae); assay: Phaedon cochleariae spray test (PHAECO); assay type: in vivo; details: Chinese cabbage leaf discs, after 7 days
# Description: H. Phaedon cochleariae-spray Test (PHAECO)
# Solvents: 78.0 parts by weight of acetone
# as §3, §4
# After 7 days, the efficacy in % is determined. 100% means that all of the beetle larvae have been killed; 0% means that none of the beetle larvae have been killed.
# [6] = test system: engorged adult female cattle ticks (Boophilus microplus); assay: Boophilus microplus injection test (BOOPMI Inj); assay type: in vivo; details: application rate 20 μg/animal; injection into abdomen; assessed after 7 days
# Description: C. Boophilus microplus-injection Test (BOOPMI Inj)
# as §5
# To produce a suitable preparation of active compound, 10 mg of active compound are mixed with 0.5 ml of solvent, and the concentrate is diluted with solvent to the desired concentration.
# 1 μl of the active compound solution is injected into the abdomen of 5 engorged adult female cattle ticks (Boophilus microplus). The animals are transferred into dishes and kept in a climate-controlled room.
# The activity is assessed after 7 days by laying of fertile eggs. Eggs whose fertility is not visible from the outside are stored in a climate-controlled cabinet until the larvae hatch after about 42 days. An efficacy of 100% means that none of the ticks has laid any fertile eggs; 0% means that all eggs are fertile.
# [7] = test system: adult cat fleas (Ctenocephalides felis); assay: Ctenocephalides felis in vitro contact test with adult cat fleas (T1); details: after 48 h
# Description: T1. Ctenocephalides felis—in vitro Contact Tests with Adult Cat Fleas
# as §1
# After evaporation of the solvent, the tubes are populated with 5-10 adult cat fleas (Ctenocephalides felis), sealed with a perforated plastic lid and incubated in a horizontal position at room temperature and ambient humidity. After 48 h, the efficacy is determined. To this end, the test tubes are stood upright and the fleas are knocked to the floor of the tube. Fleas which remain motionless on the floor or move in an uncoordinated manner are considered to be dead or moribund.
# An efficacy of 100% means that all fleas were dead or moribund. 0% efficacy means that none of the fleas had been damaged.
# [8] = test system: greenhouse red spider mite (Tetranychus urticae); assay: Tetranychus urticae spray test, OP-resistant (TETRUR); assay type: in vivo; details: bean leaf discs, after 6 days
# Description: J. Tetranychus urticae-spray Test, OP-Resistant (TETRUR)
# as §2, §3, §4
# Discs of bean leaves (Phaseolus vulgaris) which are infested by all stages of the greenhouse red spider mite (Tetranychus urticae) are sprayed with an active compound preparation of the desired concentration.
# After 6 days, the efficacy in % is determined. 100% means that all of the spider mites have been killed; 0% means that none of the spider mites have been killed.
# [9] = test system: adult cat fleas (Ctenocephalides felis); assay: Ctenocephalides felis oral test (CTECFE); assay type: in vivo; details: application rate 100 ppm in citrated cattle blood; after 2 days
# Description: D. Ctenocephalides felis-oral Test (CTECFE)
# as §5
# To produce a suitable preparation of active compound, 10 mg of active compound are mixed with 0.5 ml of dimethyl sulphoxide. Dilution with citrated cattle blood gives the desired concentration.
# About 20 unfed adult cat fleas (Ctenocephalides felis) are placed into a chamber which is closed at the top and bottom with gauze. A metal cylinder whose bottom end is closed with a parafilm is placed onto the chamber. The cylinder contains the blood/active ingredient preparation, which can be imbibed by the fleas through the parafilm membrane.
# After 2 days, the kill in % is determined 100% means that all of the fleas have been killed; 0% means that none of the fleas have been killed.
# [10] = HPLC on reversed-phase column (C18), acetonitrile/water with formic acid, EEC Directive 79/831 Annex V.A8
Compound,efficacy in % ([2]; application rate 100 g/ha) [%],"logP [4, 10]",efficacy in % ([5]; application rate 100 g/ha) [%],efficacy (laying of fertile eggs) [6] [%],efficacy in % ([5]; application rate 500 g/ha) [%],also measured
Cn1nc(C(F)(F)C(F)(F)F)c(C(F)(F)F)c1-n1cc(-c2cc(C(=O)NC3CC3)c(F)c(F)c2F)cn1 [Ic-201],–,–,–,–,–,efficacy (dead or moribund ticks) ([1]; application rate 1 μg/cm^2): 100%; efficacy (dead or moribund ticks) ([1]; application rate 5 μg/cm^2): 100%
O=C(NC1CC1)c1cc(-c2cnn(-c3c(C(F)(F)F)c(C(F)(F)C(F)(F)F)nn3-c3ncccc3Cl)c2)ccc1Cl [Ic-14],100,4.28,100,100,–,efficacy (kill in %) [3]: 100%
CONC(=O)c1cc(-c2cnn(-c3c(C(F)(F)F)c(C(F)(F)C(F)(F)F)nn3C)c2)ccc1Cl [Ic-155],–,–,–,–,–,efficacy (dead or moribund fleas) ([7]; application rate 1 μg/cm^2): 100%; efficacy (dead or moribund fleas) ([7]; application rate 5 μg/cm^2): 100%; efficacy (dead or moribund ticks) ([1]; application rate 1 μg/cm^2): 100%; efficacy (dead or moribund ticks) ([1]; application rate 5 μg/cm^2): 100%
CC(C)CNC(=O)c1cc(-c2cnn(-c3c(C(F)(F)F)c(C(F)(F)C(F)(F)F)nn3C)c2)ccc1Cl [Ic-142],–,–,–,–,100,efficacy in % ([8]; application rate 500 g/ha): 100%; efficacy in % ([2]; application rate 500 g/ha): 100%; efficacy (dead or moribund fleas) ([7]; application rate 1 μg/cm^2): 100%; efficacy (dead or moribund fleas) ([7]; application rate 5 μg/cm^2): 100%; efficacy (dead or moribund ticks) ([1]; application rate 1 μg/cm^2): 80%; efficacy (dead or moribund ticks) ([1]; application rate 5 μg/cm^2): 100%
Cn1nc(C(F)(F)C(F)(F)F)c(C(F)(F)F)c1-n1cc(-c2cc(C(=O)NC3CC3)c(Cl)cc2F)cn1 [Ic-92],–,–,–,100,100,efficacy (kill in %) [9]: 80%; efficacy (kill in %) [3]: 95%
CC(NC(=O)c1cc(-c2cnn(-c3c(C(F)(F)F)c(C(F)(F)C(F)(F)F)nn3C)c2)ccc1Cl)C(F)(F)F (centres unmarked) [Ic-110],100,4.23,100,–,–,efficacy in % ([8]; application rate 100 g/ha): 100%; efficacy (dead or moribund fleas) ([7]; application rate 5 μg/cm^2): 100%
Cc1cc(NC(=O)c2cc(-c3cnn(-c4c(C(F)(F)F)c(C(F)(F)C(F)(F)F)nn4C)c3)ccc2Cl)no1 [Ic-148],–,–,–,–,–,efficacy (dead or moribund fleas) ([7]; application rate 5 μg/cm^2): 100%; efficacy (dead or moribund ticks) ([1]; application rate 1 μg/cm^2): 80%
Cn1nc(C(F)(F)C(F)(F)F)c(C(F)(F)F)c1-n1cc(-c2cc(C(=O)NC3CC3)ncc2F)cn1 [Ic-72],–,–,–,100,100,efficacy (kill in %) [3]: 80%
N#CC1(NC(=O)c2cc(-c3cnn(-c4c(C(F)(F)F)c(C(F)(F)C(F)(F)F)nn4-c4ncccc4Cl)c3)ccc2Cl)CC1 [Ic-15],–,4.15,100,80,–,–
Cn1nc(C(F)(F)C(F)(F)F)c(C(F)(F)F)c1-n1cc(-c2ccc(Cl)c(C(=O)NC3(C#N)CSC3)c2)cn1 [Ic-128],100,4.38,100,–,–,efficacy in % ([8]; application rate 100 g/ha): 100%
Cn1nc(C(F)(F)C(F)(F)F)c(C(F)(F)F)c1-n1cc(-c2ccc(Cl)c(C(=O)NCC(=O)NCC(F)(F)F)c2)cn1 [Ic-31],–,3.65,100,–,–,efficacy (kill in %) [9]: 100%; efficacy (kill in %) [3]: 90%
Cn1nc(C(F)(F)C(F)(F)F)c(C(F)(F)F)c1-n1cc(-c2ccc(Cl)c(C(=O)NC3CC3(Cl)Cl)c2)cn1 (centres unmarked) [Ic-184],–,4.34,–,–,100,efficacy in % ([8]; application rate 500 g/ha): 100%; efficacy in % ([2]; application rate 500 g/ha): 100%
Cn1nc(C(F)(F)F)c(C(F)(F)F)c1-n1cc(-c2ccc(Cl)c(C(=O)NCC(F)F)c2)cn1 [Ic-170],100,3.43,100,–,–,efficacy in % ([8]; application rate 100 g/ha): 100%
C#CC(C)NC(=O)c1cc(-c2cnn(-c3c(C(F)(F)F)c(C(F)(F)C(F)(F)F)nn3C)c2)ccc1Cl (centres unmarked) [Ic-193],–,3.97,–,–,100,efficacy in % ([8]; application rate 500 g/ha): 100%; efficacy in % ([2]; application rate 500 g/ha): 100%
Cc1ccc(-c2cnn(-c3c(C(F)(F)F)c(C(F)(F)C(F)(F)F)nn3C)c2)cc1C(=O)Nc1ccc(F)cc1 [Ic-131],100,4.57,100,–,–,efficacy in % ([8]; application rate 100 g/ha): 100%
Cn1nc(C(F)(F)C(F)(F)F)c(C(F)(F)F)c1-n1cc(-c2cc(Cl)nc(C(=O)NC3CC3)c2)cn1 [Ic-88],–,–,–,100,100,efficacy (kill in %) [3]: 100%
Cn1nc(C(F)(F)F)c(C(F)(F)F)c1-n1cc(-c2ccc(Cl)c(C(=O)NCC(F)(F)F)c2)cn1 [Ic-169],100,3.71,100,–,–,efficacy in % ([8]; application rate 100 g/ha): 100%
Cn1nc(C(F)(F)C(F)(F)F)c(C(F)(F)F)c1-n1cc(-c2ccc(Cl)c(C(=O)NC3CCC3)c2)cn1 [Ic-143],–,–,–,–,–,efficacy (dead or moribund fleas) ([7]; application rate 1 μg/cm^2): 100%; efficacy (dead or moribund fleas) ([7]; application rate 5 μg/cm^2): 100%; efficacy (dead or moribund ticks) ([1]; application rate 1 μg/cm^2): 100%; efficacy (dead or moribund ticks) ([1]; application rate 5 μg/cm^2): 100%
Cn1nc(C(F)(F)C(F)(F)F)c(C(F)(F)F)c1-n1cnc(-c2ccc(Cl)c(C(=O)NC3(C#N)CC3)c2)n1 [Ie-1],–,–,100,100,–,"efficacy (kill in %) [9]: 100%; logP ([4]; HPLC, reversed-phase C18, acetonitrile (0.1% formic acid)/water (0.09% formic acid) gradient): 3.62"
